Assay results published in article PMC12133000 (PLOS One, 2025).
Where “and” joins values, the source holds several entries; their conditions need not be identical. Equal entries are not always repeated. Where two headings read alike, the source gives them in different places.

Test: Pharmacokinetics of rivaroxaban in rats after avitinib or gefitinib pretreatment
Format: in vivo, Sprague–Dawley (SD) rats
Settings: for MRT last / AUC(0-inf) / Tmax / AUC(0-t) / CL/F / Cmax / half-life / MRT inf / Vd/F: male, Sprague-Dawley, rat, plasma, po, 10 mg/kg; for AUC(0-t): read-out: AUC(0–t); for CL/F: read-out: CLz/F (converted); for Cmax: read-out: Cmax; for half-life: read-out: t1/2 (converted); for MRT inf: read-out: MRT(0–∞); for Vd/F: read-out: Vz/F
Description: Eighteen male Sprague–Dawley (SD) rats weighing 300 ± 20 g were provided by the Experimental Animal Center of Wenzhou Medical University (Wenzhou, China) and kept under controlled conditions at a temperature of 23 ± 2 °C, relative humidity of 50 ± 10%, and 12 h light–dark cycle. Eighteen male SD rats were randomly assigned to three groups: avitinib, gefitinib, and control, with six rats per group. Prior to the experiment, the rats were not administered any other medications and fasted for 12 h. The experimental procedures and protocols adhered to Animal Ethics standards and were approved by the Animal Care and Use Committee of Wenzhou Medical University (approval no. wydw2019–650). All rats were anesthetized with sodium pentobarbital (40mg/kg, i.p) to relieve pain. The rats were killed through cervical dislocation.
Prior to the experiment in vivo, the six rats in the avitinib group were administered 30 mg/kg avitinib and 0.5% sodium carboxymethyl cellulose (CMC-Na) solution by gavage daily for 7 d. […] The supernatant was collected and stored at −80 °C. After thawing, 50 μL of plasma was extracted; 100 μL of acetonitrile solution containing midazolam (200 ng/mL) was then added to induce protein precipitation. After vortexing for 30 s and centrifuging at 13,000 rpm for 5 min, the […].
All assays were performed in triplicate, and the results are expressed as mean ± standard deviation. DAS software v. […] SPSS v. 25.0 (IBM, NY, USA) was used for data processing. Student’s t-tests were used to detect differences between groups. Differences with p < 0.05 were considered statistically significant.

[1] = rats, rivaroxaban 10 mg/kg oral, avitinib group (30 mg/kg pretreatment)
[2] = rats, rivaroxaban 10 mg/kg oral, control group (CMC-Na only)
[3] = rats, rivaroxaban 10 mg/kg oral, gefitinib group (25 mg/kg pretreatment)

SMILES: O=C(NC[C@H]1CN(c2ccc(N3CCOCC3=O)cc2)C(=O)O1)c1ccc(Cl)s1 [rivaroxaban, Rivaroxaban]
- MRT last (gefitinib group, single rats No1-No6, read-out: MRT(0-t)): 5.59 h
- AUC(0-inf) [1]: 9350 ± 3840 ng·h/mL
- Tmax [1]: 1.33 ± 0.82 h
- AUC(0-t) [1]: 9000 ± 3740 ng·h/mL
- CL/F [1]: 19.7 mL/min/kg
- Cmax [1]: 1810 ± 619 ng/mL
- MRT last (rats, rivaroxaban 10 mg/kg oral, avitinib group (30 mg/kg pretreatment), read-out: MRT(0–t)): 3.79 ± 0.66 h
- half-life [1]: 2.2 ± 1.07 h
- AUC(0-inf) [2]: 2280 ± 870 ng·h/mL
- Tmax [2]: 0.83 ± 0.26 h
- AUC(0-t) [2]: 2250 ± 853 ng·h/mL
- CL/F [2]: 80.8 mL/min/kg
- Cmax [2]: 441 ± 81.8 ng/mL
- MRT last (rats, rivaroxaban 10 mg/kg oral, control group (CMC-Na only), read-out: MRT(0–t)): 3.79 ± 1.08 h
- MRT inf [2]: 3.95 ± 1.05 h
- Vd/F [2]: 11.5 ± 2.63 L/kg
- half-life [2]: 1.61 ± 0.61 h
- AUC(0-inf) [3]: 76000 ± 20800 ng·h/mL
- Tmax [3]: 3.17 ± 0.98 h
- AUC(0-t) [3]: 58000 ± 5890 ng·h/mL
- CL/F [3]: 2.33 mL/min/kg
- Cmax [3]: 8310 ± 2100 ng/mL
- MRT last (rats, rivaroxaban 10 mg/kg oral, gefitinib group (25 mg/kg pretreatment), read-out: MRT(0–t)): 4.9 ± 0.47 h
- MRT inf [3]: 8.23 ± 3.61 h
- Vd/F [3]: 0.87 ± 0.28 L/kg
- half-life [3]: 4.81 ± 2.7 h
- MRT(0–∞) [1]: 4.26 ± 1.12 h
- rivaroxaban (吉非替尼 (gefitinib) group, individual rats 7-12, time 0.0833): 778.8 ng/mL and 334.9 ng/mL and 724.5 ng/mL and 847.1 ng/mL and 256.3 ng/mL and 816.3 ng/mL
- rivaroxaban (吉非替尼 (gefitinib) group, individual rats 7-12, time 0.25): 1686.1 ng/mL and 1476.8 ng/mL and 2176.1 ng/mL and 1686 ng/mL and 1747.2 ng/mL
- rivaroxaban (吉非替尼 (gefitinib) group, individual rats 7-12, time 0.5): 3330.8 ng/mL and 4408.9 ng/mL and 4082.8 ng/mL and 3161.2 ng/mL and 3240.3 ng/mL
- rivaroxaban (吉非替尼 (gefitinib) group, individual rats 7-12, time 1): 5012 ng/mL and 6707.2 ng/mL and 5280.7 ng/mL and 6110.2 ng/mL and 4481.1 ng/mL
- rivaroxaban (吉非替尼 (gefitinib) group, individual rats 7-12, time 2): 8309.8 ng/mL and 7015.4 ng/mL and 10641.7 ng/mL and 6946 ng/mL
- rivaroxaban (吉非替尼 (gefitinib) group, individual rats 7-12, time 3): 6431.9 ng/mL and 10386.8 ng/mL and 7734.1 ng/mL
- rivaroxaban (吉非替尼 (gefitinib) group, individual rats 7-12, time 4): 6136.6 ng/mL and 9214.1 ng/mL and 6949.9 ng/mL
- rivaroxaban (吉非替尼 (gefitinib) group, individual rats 7-12, time 6): 6115 ng/mL and 5681 ng/mL and 5825.4 ng/mL
- rivaroxaban (吉非替尼 (gefitinib) group, individual rats 7-12, time 8): 3374.5 ng/mL and 2542.2 ng/mL and 4779.1 ng/mL
- rivaroxaban (吉非替尼 (gefitinib) group, individual rats 7-12, time 12): 732.7 ng/mL and 1716.7 ng/mL and 1654.8 ng/mL and 917.3 ng/mL
- rivaroxaban (对照 (control, rivaroxaban alone) group, individual rats 13-18, time 0.0833): 278.3 ng/mL and 142.7 ng/mL and 136.5 ng/mL and 68.9 ng/mL and 158.6 ng/mL and 163.2 ng/mL
- rivaroxaban (对照 (control, rivaroxaban alone) group, individual rats 13-18, time 0.25): 264.9 ng/mL and 294.2 ng/mL and 171.8 ng/mL and 256.9 ng/mL and 261.1 ng/mL
- rivaroxaban (对照 (control, rivaroxaban alone) group, individual rats 13-18, time 0.5): 465.3 ng/mL and 337.5 ng/mL and 461.6 ng/mL and 378.7 ng/mL and 305.8 ng/mL
- rivaroxaban (对照 (control, rivaroxaban alone) group, individual rats 13-18, time 2): 261.4 ng/ml (2×) and 475.9 ng/ml and 181.6 ng/ml and 351.5 ng/ml and 418.6 ng/ml and 334.6 ng/ml
- rivaroxaban (对照 (control, rivaroxaban alone) group, individual rats 13-18, time 3): 240.8 ng/mL and 431.8 ng/mL and 207.2 ng/mL and 349.6 ng/mL
- rivaroxaban (艾维替尼 (avitinib) group, individual rats 1-6, time 0.0833): 380.2 ng/mL and 320.6 ng/mL and 287.7 ng/mL and 191 ng/mL and 288.9 ng/mL and 237.4 ng/mL
- rivaroxaban (艾维替尼 (avitinib) group, individual rats 1-6, time 0.25): 386.7 ng/ml (2×) and 727.9 ng/ml and 581.8 ng/ml and 614.9 ng/ml and 286.3 ng/ml and 927.5 ng/ml
- rivaroxaban (艾维替尼 (avitinib) group, individual rats 1-6, time 0.5): 990.9 ng/ml (2×) and 1066.3 ng/ml and 1018.5 ng/ml and 978.4 ng/ml and 583.2 ng/ml and 1904.4 ng/ml
- rivaroxaban (艾维替尼 (avitinib) group, individual rats 1-6, time 1): 1423.2 ng/ml (2×) and 1593.7 ng/ml and 2386.3 ng/ml and 1162.7 ng/ml and 1561.2 ng/ml and 2231.2 ng/ml
